The nature of data set [1]: In-vivo pharmacokinetic study in mice (bioavailability testing). The note with it: mouse, plasma; oral (PO) and intravenous (IV) routes, female Balb/c nude mice. The procedure:
Test compounds were administered to mice via oral (PO) and intravenous (IV) routes. The test compounds were dissolved at room temperature. The mice used in the study were Balb/c nude mice, all female, aged 6-8 weeks, with a body weight of 20-30 grams. Before administration, the mice had free access to food and water. Blood samples (approximately 0.03 mL per sample) were collected from the vein at appropriate time points. The samples were placed in tubes containing an anticoagulant and stored on ice until centrifugation. Blood samples were collected at 0.083, 0.25, 0.5, 1, 2, 4, 8, and 24 hours after intravenous administration, and at 0.25, 0.5, 1, 2, 4, 8, and 24 hours after oral administration. The blood samples were centrifuged at approximately 4000 rpm at 2-8 °C for 5 minutes. Plasma samples were then collected and stored frozen at approximately -80 °C until analysis. The LC-MS/MS system was used for bioanalytical work. Table 4. Bioavailability Testing

In data set [2] the test system is DLD1 BRCA2^-/-. Kind of data set: Cell activity assay (CellTiterGlo), BRCA2 gene knockout DLD1 cancer cells. In kind it is cell-based. The note with it: Homo sapiens, DLD-1, 144 h, read-out: IC50(nM) DLD1 BRCA2^-/-. The procedure: (§1) • (1) Compound Treatment • a) Preparation of Stock Solutions of Compounds Test compounds were dissolved in DMSO at a concentration of 10 mM or 5 mM, and Olaparib was dissolved in DMSO at a concentration of 10 mM. • b) Compound Storage All compounds dissolved in DMSO were stored in a desiccator at room temperature for short-term storage and transferred to a -20°C refrigerator for long-term storage. • c) Preparation of Working Concentrations of Compounds
(§2) Test compounds were serially diluted in DMSO at a 3-fold gradient to prepare 10 concentration gradients, starting from 10 µM.
(§3) Olaparib was serially diluted in DMSO at a 3-fold gradient to prepare 10 concentration gradients, starting from 10 µM.
(§4) The 384-well plate loaded with the compounds was centrifuged at 1000 rpm for 1 minute.
(§5) • a) Cells were added to the culture medium and incubated in a cell culture incubator at 37°C with 5% CO2. • b) 40 µL of BRCA1- or BRCA2-deficient cells were added to a 384-well plate and incubated overnight at 37°C with 5% CO2. • c) The test compounds were prepared at different concentration gradients on the master plate, and 80 nL of the test compounds and Olaparib were taken from the master plate and added to the 384-well plate containing cells, and incubated at 37°C with 5% CO2 for 6 days. • d) CellTiterGlo (30 µL per well) was added to the 384-well plate, and after incubation at room temperature in the dark for 30 minutes, measurement was performed using an Envision plate reader.
(§6) • a) GraphPad Prism software was used to calculate the ICso and plot the activity curves as a function of concentration. • b) The inhibition of cell activity by the compounds was calculated using the following formula: % Inhibition = [1−(Cmpd−Blank)/(DMSO−Blank)]*100 [formula]
Background: In ATP-based viability assays light output follows the ATP content of the culture.

Data set [3] is described as follows: Toxicity assay in mice, repeated dosing at 50 mg/kg, body weight. The note with it: 50 mg/kg PO once every 3 days, female mice. Format: in vivo. Here is the method:
Test compounds were administered to mice via the oral (PO) route. The test compounds were dissolved at room temperature. The mice used in the study were all female, and aged 6-8 weeks. Before administration, the mice had free access to food and water. Vehicle control: 50 mM NaH2PO4, pH 4.0, administered once every 3 days. CX-5461 and Compound H-31 were administered once every 3 days at a dose of 50 mg/kg. If the body weight of the mice decreased by more than 15%, administration was suspended until the body weight recovered, after which administration was resumed.

For data set [4], the system named is MDA-MB-436 cancer cells. Kind of data set: Inhibition of human-derived cancer in mouse model (MDA-MB-436 subcutaneous tumors). To be noted: MDA-MB-436 model, oral, 25 mg/kg once every 3 days. In kind it is in vivo, NOD SCID mice. The procedure: The anti-cancer efficacy of the compounds of the present application was evaluated in NOD SCID mice. Female mice aged 6-8 weeks were subcutaneously inoculated with MDA-MB-436 cancer cells to form tumors. When the tumors reached a size of 100-150 mm^3, the mice were randomly divided into groups, with 6 mice in each group. The administration route was oral administration. Olaparib was administered once a day at a dose of 100 mg/kg for a total of 28 days. The vehicle control group and Compound H-31 were administered once every 3 days at a dose of 25 mg/kg.

The test system of data set [5] is UWB1.289 Cells. Kind of data set: Cell activity assay (CellTiterGlo), BRCA1 gene-deficient ovarian cancer cells UWB1.289. Format: cell-based. To be noted: UWB1289, 144 h, BRCA1 gene-deficient ovarian cancer cells UWB1.289, 6 days incubation. Here is the method:
as §1, §2, §3, §4, §5, §6

The test system of data set [6] is human herpesvirus HCMV-AD169. The data set is described as follows: Antiviral cell-protective activity, GFP-labeled HCMV-AD169 in MRC5 cells. In kind it is cell-based. Here is the method: MRC5 cells were seeded in microplates at a specific density and cultured overnight in an incubator at 37 °C with 5% CO2. Serially diluted compounds and GFP-labeled human herpesvirus HCMV-AD169 were added to the microplates. A cell control group (cells without compound treatment or viral infection) and a virus control group (cells infected with the virus but without compound treatment) were set up. The test compounds and control compounds were tested at 8 concentrations, with 3-fold serial dilutions and triplicate wells for each concentration. Meanwhile, the cytotoxicity of the test compounds and control compounds on cells was determined. The cells were cultured in an incubator at 37 °C with 5% CO2 for 7 days. Acumen Cellista was used to detect the GFP fluorescence intensity inside the cells in each well. Cell viability detection reagents CCK-8 or Cell Titer Glo were used to measure cell viability, and the original data were used for calculating the cytotoxicity of the test compounds. GraphPad Prism software was applied to analyze the dose-response curves of the test compounds, calculate the virus inhibition EC50 and cytotoxicity CC50 values, and further calculate the therapeutic index (SI), using the formula SI = CC50/EC50, which was used to evaluate the therapeutic potential of the drug; a higher SI value indicates stronger efficacy of the drug against viruses.

pEC50: −log10 of the molar value.

The compound `[2H]C([2H])([2H])N1CCCN(c2ccc3c(=O)c(C(=O)NCc4ncccn4)c4sc5ccccc5n4c3n2)CC1` [Compound H-31] had a bioavailability in data set [1] of 43.1%. The IC50 is 12.8 nM in data set [2] and 28.8 nM in data set [5]. Further, the “overall condition / clinical symptoms” value in data set [3] (21 days) was “no abnormal clinical symptoms were observed”. The “effect on mouse body weight” value in data set [3] (after 21 days of repeated administration) is recorded as “weight trends similar to the control group”. In data set [4], this compound returned a cancer inhibition rate of 82.2%. The negative-log EC50 (pEC50) in data set [6] (Human betaherpesvirus 5, 168 h, HCMV-AD169 GFP fluorescence, 7 days, read-out: Virus inhibition EC50) was 7.52. For the same compound, the “SI (CC50/EC50)” value in data set [6] (therapeutic index, HCMV-AD169) is more than 101.7.

As a reminder, the bioavailability is the share of a dose that reaches the circulation, judged against a reference dose that is usually intravenous. Lower therefore signals poor availability. For orientation: pEC50 means −log10 of the EC50, conventionally taken in molar units.

(Values after patent EP4703364A1, “QUINOLONE ANALOG AND USE THEREOF” (Horizon Omics Biotech Limited, priority 2023, dated 2024).)
